# Results from US20240060072A1, “METHOD AND COMPOSITION FOR TREATING NON-ALCOHOLIC FATTY LIVER DISEASE, ASSOCIATED CONDITIONS AND SYMPTOMS” (THE HONG KONG POLYTECHNIC UNIVERSITY, priority 2022, published 2024).
# Tests used:
# HFD-fed mice = assay: CCl4 or STZ treatment of HFD-fed mice: hepatic mRNA by RT-qPCR; format: in vivo, mouse; details: compared to untreated HFD-fed mice
# mouse SCD1 promoter = assay: SCD1 promoter luciferase reporter assay and RT-qPCR in HEK293 cells; format: cell-based; details: DHEA 100 μM for 24 h
# Description: In vitro luciferase reporter assay was performed to further validate the expression of SCD1 is transcriptional regulated by GPR110. Plasmid harbouring luciferase gene driven by the mouse SCD1 promoter (−2000 to +100) was constructed to transfect into HEK293 cells. Typically, HEK293 cells were cultured in DMEM supplemented with 10% FBS, 100 U/ml penicillin and 100 μg/ml streptomycin at 37° C. and 5% CO2, and then seeded in 6-well plates followed by transfection with pGL3-SCD1 promoter and adenoviral vector expressing either GPR110 (ADV-GPR110) or GFP (ADV-GFP) by using the transfection reagent (#E4981, Promega, WI, USA). There was no change of luciferase activity of pGL3- SCD1 promoter-luciferase transfected HEK293 cells under the treatment of GPR110 ligand DHEA, unless the HEK293 cells were pre-infected with adenovirus overexpressing GPR110 (ADV-GPR110; FIG. 9C). The overexpression of GPR110 in ADV-GPR110 infected cells and inductions of SCD1 mRNA expression by treatment of DHEA were also validated by RT-qPCR (FIG. 9D). The changes in hepatocyte lipid profiles by the expression level of GPR110 and SCD1 were also checked. In agreement with the in vivo data, the overexpression of GPR110 increased the intracellular CHO (FIG. 9E), TG (FIG. 9F) and FFA (FIG. 9G). […] In summary, the transcription level of SCD1 is regulated by GPR110. […]
# SCD1 [1] = assay: SCD1 inhibitor MK8245 in HFD-fed rAAV-GPR110 mice: GPR110 expression, body weight, glucose homeostasis; format: in vivo, mouse
# Description: FIG. 10A schematically depicts a scheme of different treatments to a mouse model according to certain embodiments, where eight-week-old male C57BL/6J mice were infected with either 3×10^11 copies of rAAV encoding GPR110 (rAAV-GPR110) via i.v. or control (rAAV-GFP) via i.v. after 8-week HFD feeding, and then 2 weeks after infection treated with SCD1 inhibitor, MK8245, at 10 mg/kg/week via oral administration (p.o.) or inhibitor vehicle (inhibitor-Veh.) via p.o.;
# To evaluate the impacts of high hepatic GPR110 level on liver metabolism, GPR110 was overexpressed in the hepatocytes of HFD-fed mice by liver-directed rAAV/thyroxine binding globulin (TBG)-mediated gene expression system (FIGS. 2A and 3A). In general, 8-week-old C57BL/6J male mice were housed in pathogen-free conditions at controlled temperature with a 12-hour light-dark cycle and access to food and water ad libitum. The 8-week-old male mice were divided into two groups and fed with high-fat diet (HFD, 20% protein, 45% fat, 35% carbohydrates, Research Diets Inc., New Brunswick, NJ, USA), or standard chow diet (STC, 18.3% protein, 10.2% fat, 71.5% carbohydrates, Research Diet Inc., New Brunswick, NJ, USA) in some other examples, for 8 weeks. The recombinant adeno-associated virus vector rAAV2/8 transduction was conducted as described previously (Lee et al, 2016; Cheng et al, 2022). Briefly, mice were tail vein injected with 3×10^11 rAAV2/8 vector harboring either green fluorescent protein (GFP) or GPR110. In other examples, for antisense oligonucleotide (ASO) delivery, validated ASOs against mouse GPR110 were provided by Ionis Pharmaceuticals and injected subcutaneously once a week at 5 mg/kg body weight to the mice. In some other examples, for SCD1 inhibitor delivery, MK-8245 (MedChemExpress, NJ, USA) was gavage at 10 mg/kg once a week. All measurements were carried out in a randomized order. Typically, glucose profile measurement was performed in terms of the blood glucose and insulin level by collecting the blood samples from the tip of the tail of the mouse models using a glucometer. For the glucose tolerance test (GTT), insulin tolerance test (ITT) and pyruvate tolerance test (PTT), mice were fasted overnight prior to intraperitoneal injection of glucose (1 g/kg body weight (BW)) (Sigma, St. Louis, MO), 0.75 U/kg BW insulin (Novolin R, Novo Nordisk, Bagsvaerd, Denmark) or 1 g/kg BW pyruvate (Sigma, St. Louis, MO). Blood glucose levels were measured from the tip of tail vein at 15, 30, 60, 90 and 120 minutes after injection.
# SCD1 [2] = assay: SCD1 inhibitor MK8245 in HFD-fed rAAV-GPR110 mice: circulating lipids, liver enzymes, hepatic steatosis
# Description: In general, 8-week-old C57BL/6J male mice were housed in pathogen-free conditions at controlled temperature with a 12-hour light-dark cycle and access to food and water ad libitum. […] Briefly, mice were tail vein injected with 3×10^11 rAAV2/8 vector harboring either green fluorescent protein (GFP) or GPR110. […] All measurements were carried out in a randomized order.
# Typically, for plasma and hepatic lipid level, serum levels of triglyceride (TG) and total cholesterol (CHO) were measured using commercial kit (Biosino, biotechnology and science INC, China) according to the manufacturer's instructions. Hepatic lipids were extracted using Folch methodology and liver extract was dissolved in ethanol for TG and CHO measurements. Both serum and hepatic levels of free fatty acid (FFA) were measured using commercial kit (Solarbio, China).
# Typically, for liver function assay, the alanine aminotransferase (ALT) and aspartate aminotransferase (AST) levels were measured in serum using commercial kits (Stanbio, USA).
# [3] = HFD-fed rAAV-GPR110 mice, vs untreated littermates
# [4] = rAAV-GPR110 mice, chronic treatment for 11 weeks, 10 mg/kg/week p.o.
# [5] = HFD-fed rAAV-GPR110 mice, 10 mg/kg/week p.o.
# [6] = compared to the rAAV-GPR110 littermates
smiles,measurement,setting,value
ClC(Cl)(Cl)Cl [CCl4],SCD1 mRNA expression level,HFD-fed mice,significantly higher
same,expression of hepatic GPR110 mRNA,HFD-fed mice,significantly increased
CC/C=C\C/C=C\C/C=C\C/C=C\C/C=C\C/C=C\CCC(=O)NCCO [DHEA],SCD1 mRNA expression,"mouse SCD1 promoter; ADV-GPR110 infected HEK293 cells, RT-qPCR",inductions
same,luciferase activity of pGL3-SCD1 promoter-luciferase,mouse SCD1 promoter; HEK293 cells not pre-infected with ADV-GPR110,no change
"O=C(O)Cn1nnc(-c2cc(N3CCC(Oc4cc(F)ccc4Br)CC3)no2)n1 [MK8245, 5-[3-[4-(2-bromo-5-fluorophenoxy)-1-piperidinyl]-5-isoxazolyl]-2H-tetrazole-2-acetic acid]",body weight,"SCD1 [1]; HFD-fed rAAV-GPR110 mice, 10 mg/kg/week p.o., vs untreated littermates",lowered
same,HOMR-IR,SCD1 [1]; [3],improved
same,fasting glucose level,SCD1 [1]; [3],improved
same,insulin sensitivity by ITT,SCD1 [1]; [3],no change
same,performance in GTT,SCD1 [1]; [3],improved
same,performance in PTT,SCD1 [1]; [3],improved
same,expression of GPR110 mRNA,SCD1 [1]; [4],did not affect
same,expression of GPR110 protein,SCD1 [1]; [4],did not affect
same,HDL,SCD1 [2]; HFD-fed rAAV-GPR110 mice,relatively higher
same,LDL level,SCD1 [2]; HFD-fed rAAV-GPR110 mice,no differences detected
same,circulating FFA level,SCD1 [2]; HFD-fed rAAV-GPR110 mice,no change
same,severity of fibrosis,SCD1 [2]; HFD-fed rAAV-GPR110 mice,partially reduced
same,circulating CHO level,SCD1 [2]; [5],lowered
same,circulating TG level,SCD1 [2]; [5],lowered
same,ALT level,SCD1 [2]; [6],alleviated
same,AST level,SCD1 [2]; [6],alleviated
CN(N=O)C(=O)N[C@@H]1[C@@H](O)[C@H](O)[C@@H](CO)O[C@@H]1O [STZ],SCD1 mRNA expression level,HFD-fed mice,significantly higher
same,expression of hepatic GPR110 mRNA,HFD-fed mice,significantly increased
